Test results published in US20250332173A1, “COMPOUNDS AND METHODS FOR MODULATING NUCLEIC ACID SPLICING” (REMIX THERAPEUTICS INC., priority 2021, published 2025).
Where two headings read alike, the source gives them in different places.

Columns and labels:
SMN2 mRNA = experiment: RT-qPCR splicing assay, SMN2 canonical junction (CJ) mRNA; assay type: cell-based, human; settings: Homo sapiens; Table 5 panel; canonical junction qPCR; compound concentration having 50% response in CJ decrease; read-out: SMN2 IC50 (decrease in CJ mRNA levels)
Outline: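 Exposure: 24 h, 37 °C, 11-point 3-fold dilutions from 10 uM final, DMSO at or below 0.25%, in A673 or K562 cells. Detection: cell-lysate RT-qPCR of canonical junction mRNA relative to GAPDH, GUSB or PPIA.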

HTT mRNA = experiment: RT-qPCR splicing assay, HTT canonical junction (CJ) and alternative junction (AJ) mRNA; assay type: cell-based, human; settings: Homo sapiens; for AC50: increase in HTT alternative junction (AJ) mRNA, read-out: HTT AJ AC50
Outline: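 24 h treatment, 37 °C/5% CO2; A673 or K562; 11-pt 3-fold series, top 10 uM final; DMSO ≤0.25%. Cell lysis with DNase I, then 1-step RT-qPCR. Housekeeping normalization: PPIA (A673), GAPDH or GUSB (K562).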

[1] = decrease in HTT canonical junction (CJ) mRNA, RT-qPCR, read-out: HTT CJ IC50
[2] = Table 5 panel, canonical junction qPCR, compound concentration having 50% response in CJ decrease, read-out: HTT IC50 (decrease in CJ mRNA levels)

SMILES	IC50 (SMN2 mRNA) [nM]	IC50 (HTT mRNA; [1]) [nM]	AC50 (HTT mRNA; RT-qPCR) [nM]	IC50 (HTT mRNA; [2]) [nM]
CCN1CCC(n2ccc3cc(-c4cc(C)c5nc(C)cn5n4)ccc3c2=O)CC1 [Compound 402, 6-{2,8-dimethylimidazo[1,2-b]pyridazin-6-yl}-2-(1-ethylpiperidin-4-yl)isoquinolin-1-one]	< 100	100 to 1000	100 to 1000	100 to 1000
Cc1cn2cc(-c3cc(F)c4c(=O)n([C@H]5CCNC5)ccc4c3)cc(F)c2n1 (single isomer, unassigned) [Compound 396]	< 100	1000 to 10000	1000 to 10000	1000 to 10000
Cn1cc2c(n1)CCN(c1ccc3c(=O)n(C4CCNCC4)ccc3c1)C2 [Compound 509, 6-{2-methyl-4H,6H,7H-pyrazolo[4,3-c]pyridin-5-yl}-2-(piperidin-4-yl)isoquinolin-1-one]	1000 to 10000	> 10000	> 10000	> 10000
Cc1c(O)c(-c2cc(F)c3c(=O)n(C4CCNC5(CC5)C4)ccc3c2)cc2cn(C)nc12 (stereo not drawn) [Compound 419, 2-{4-azaspiro[2.5]octan-7-yl}-8-fluoro-6-(6-hydroxy-2,7-dimethylindazol-5-yl)isoquinolin-1-one]	100 to 1000	> 10000	> 10000	> 10000
Cc1cn2cc(-c3cc(F)c4c(=O)n(C5CCNCC5)ccc4c3)cc(F)c2n1 [Compound 370]	< 100	< 100	< 100	< 100
Cc1cc(-c2ccc3c(=O)n([C@@H]4CCNC[C@H]4F)ncc3c2)cc2cn(C)nc12 [Compound 378]	100 to 1000	1000 to 10000	1000 to 10000	1000 to 10000
Cc1cn2nc(-c3cc(F)c4c(=O)n(C5CCNC5)ccc4c3)cc(C)c2n1 (stereo in doubt) [Compound 382, (R)-6-(2,8-dimethylimidazo[1,2-b]pyridazin-6-yl)-8-fluoro-2-(pyrrolidin-3-yl)isoquinolin-1(2H)-one]	< 100	1000 to 10000	1000 to 10000	1000 to 10000
Cc1cc(-c2ccc3c(=O)n(C4CCN(C)CC4)cnc3n2)cc2cn(C)nc12 [Compound 173]	1000 to 10000	> 10000	> 10000	> 10000
Cc1cn2cc(-n3ccc4cc(N5C[C@@H](C)N[C@@H](C)C5)ccc4c3=O)nc(C)c2n1 [Compound 454, 2-{2,8-dimethylimidazo[1,2-a]pyrazin-6-yl}-6-[(3R,5S)-3,5-dimethylpiperazin-1-yl]isoquinolin-1-one]	1000 to 10000	> 10000	> 10000	> 10000
Cc1cc(-c2ccc3c(=O)n(C4CCNCC4)cnc3c2)cc2cn(C)nc12 [Compound 174]	< 100	100 to 1000	100 to 1000	100 to 1000
Cc1cn2cc(-c3cc(F)c4c(=O)n(C5CCNCC5)cc(C)c4c3)cc(F)c2n1 [Compound 461, 8-fluoro-6-{8-fluoro-2-methylimidazo[1,2-a]pyridin-6-yl}-4-methyl-2-(piperidin-4-yl)isoquinolin-1-one]	< 100	100 to 1000	100 to 1000	100 to 1000
Cc1cn2cc(-c3cc(F)c4c(=O)n([C@@H]5CCNC5)ccc4c3)cc(F)c2n1 (single isomer, unassigned) [Compound 395]	< 100	1000 to 10000	1000 to 10000	1000 to 10000
Cc1cn2cc(-c3cc(F)c4c(=O)n(C5CCNC5)ccc4c3)cc(C#N)c2n1 (stereo not drawn) [Compound 434, 6-[8-fluoro-1-oxo-2-(pyrrolidin-3-yl)isoquinolin-6-yl]-2-methylimidazo[1,2-a]pyridine-8-carbonitrile]	< 100	> 10000	> 10000	> 10000
Cc1cn2nc(-c3cc4ccn(C5CCNCC5)c(=O)c4cc3O)cc(C)c2n1 [Compound 448, 6-{2,8-dimethylimidazo[1,2-b]pyridazin-6-yl}-7-hydroxy-2-(piperidin-4-yl)isoquinolin-1-one]	< 100	< 100	< 100	< 100
Cc1nc2c(F)cc(-c3cc(F)c4c(=O)n(C5CCNC6(CC6)C5)ccc4c3)cc2n1C (stereo not drawn) [Compound 430, 8-fluoro-6-(4-fluoro-1,2-dimethyl-1H-benzo[d]imidazol-6-yl)-2-(4-azaspiro[2.5]octan-7-yl)isoquinolin-1(2H)-one]	100 to 1000	> 10000	> 10000	> 10000
